In patent US10005792B2, “Aminoindane-, aminotetrahydronaphthalene- and aminobenzocyclobutane-derived PRMT5-inhibitors” (CTXT PTY LTD, priority 2014, dated 2018) one finds IC50 data, which are given here for 29 compounds.

By IC50 is commonly meant the concentration that gives 50% inhibition. Low readings indicate greater potency in that assay, high ones weaker potency in that assay.

Each structure is given as a SMILES string. Structures can show the parent of a compound that is named as a salt.

Sequence of Full-length PRMT5 enzyme co-expressed with MEP50 (O14744 whole entry): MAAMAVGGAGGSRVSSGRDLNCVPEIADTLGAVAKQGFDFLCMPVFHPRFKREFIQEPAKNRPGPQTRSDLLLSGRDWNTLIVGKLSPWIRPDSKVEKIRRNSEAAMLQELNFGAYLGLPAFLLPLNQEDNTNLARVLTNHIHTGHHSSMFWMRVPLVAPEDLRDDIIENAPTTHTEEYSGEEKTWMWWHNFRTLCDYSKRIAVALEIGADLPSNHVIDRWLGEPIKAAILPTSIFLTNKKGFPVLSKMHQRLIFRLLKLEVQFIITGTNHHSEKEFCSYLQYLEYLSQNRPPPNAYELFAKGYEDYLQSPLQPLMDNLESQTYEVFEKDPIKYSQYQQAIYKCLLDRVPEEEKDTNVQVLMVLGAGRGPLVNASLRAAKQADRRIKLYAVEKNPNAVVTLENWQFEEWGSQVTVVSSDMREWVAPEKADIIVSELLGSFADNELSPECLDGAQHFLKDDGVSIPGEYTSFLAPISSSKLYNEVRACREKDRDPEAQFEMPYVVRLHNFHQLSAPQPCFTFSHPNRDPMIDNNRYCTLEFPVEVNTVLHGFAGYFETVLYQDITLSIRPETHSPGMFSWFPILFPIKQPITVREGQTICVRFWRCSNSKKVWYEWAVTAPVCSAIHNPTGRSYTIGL
Sequence of Full-length PRMT5 enzyme co-expressed with MEP50 (Q9BQA1 whole entry partner): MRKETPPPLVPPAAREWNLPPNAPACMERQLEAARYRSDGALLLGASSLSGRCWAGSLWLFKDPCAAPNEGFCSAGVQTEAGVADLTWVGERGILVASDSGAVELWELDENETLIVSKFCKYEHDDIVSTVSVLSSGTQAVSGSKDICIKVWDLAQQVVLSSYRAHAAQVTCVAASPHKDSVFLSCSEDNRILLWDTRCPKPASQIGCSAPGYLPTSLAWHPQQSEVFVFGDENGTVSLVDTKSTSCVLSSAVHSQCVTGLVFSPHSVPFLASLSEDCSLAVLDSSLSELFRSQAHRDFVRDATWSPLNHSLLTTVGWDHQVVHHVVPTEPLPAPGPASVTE

For this assay, the target named is Full-length PRMT5 enzyme co-expressed with MEP50 (Homo sapiens (Human), UniProt O14744). The assay can be described thus: Revised PRMT5 Biochemical Assay. The following applies: 1 μM histone H4 derived peptide substrate, 1 μM S-Adenosyl methionine, 4 hours at 37 degree Celsius, Transcreener EPIGEN fluorescence polarisation. Here is the method:
Compounds of the invention may be tested for in vitro activity in the following assay: A histone H4 derived peptide is used as substrate (amino acid sequence: […]NH2). Full-length PRMT5 enzyme (NCBI Reference sequence NP-006100.2) was co-expressed with Hiss-MEP50 in insect cells and purified via Nickel immobilized metal affinity and gel filtration chromatography (“the enzyme”).
The 6 μL reactions are run in Greiner brand black 384-well low volume assay plates. All reactions contained assay buffer (phosphate buffered saline, 0.01% (v/v) Tween-20, 0.01% (w/v) albumin from chicken egg white, 1 mM Dithiothreitol, 1 μM peptide substrate, 1 μM S-Adenosyl methionine, and 15 ng/reaction enzyme, with the enzyme being omitted from negative control reactions. Compounds were added in a volume of 100 nL from dilution series prepared in DMSO, positive and negative control reactions receiving the same volume DMSO without compound. The plates were sealed with adhesive seals and incubated for 4 hours at 37 degree Celsius. Reaction progress was measured using the Transcreener™ EPIGEN methyltransferase assay (BellBrook Labs, Madison, Wis.) as recommended by the manufacturer. To each reaction 2 μL detection mix were added, containing coupling enzymes, fluorescence polarisation tracer, and AMP antibody. Plates were incubated for 90 minutes before being read on a PerkinElmer EnVision™ plate reader in fluorescence polarisation mode. IC50 values were obtained from the raw readings by calculating percent inhibition (% I) for each reaction relative to controls on the same plate (% I=(I−CN)/(CP−CN) where CN/CP are the averages of the negative/positive reactions, respectively), then fitting the % I data vs. compound concentration [I] to % I=([…]) where A is the lower asymptote, B is the upper asymptote, C is the IC50 value, and D is the slope.
On the technique in general: Fluorescence polarisation rises when a labelled molecule tumbles more slowly, as on binding a larger partner.
On to `COC1CCN(C(=O)c2ccc(C(=O)NC[C@@H](O)CNC3Cc4ccccc4C3)cc2)C1` (stereo partly drawn) [Compound 81, N-((S)-3-((2,3-dihydro-1H-inden-2-yl)amino)-2-hydroxypropyl)-4-(3-methoxypyrrolidine-1-carbonyl)benzamide], for which the IC50 came to 1.37 µM.

In the case of `COC1CCN(C(=O)c2ccc(C(=O)NC[C@@H](O)CNC3Cc4ccccc4C3)cc2)CC1` [Compound 86, (S)-N-(3-((2,3-dihydro-1H-inden-2-yl)amino)-2-hydroxypropyl)-4-(4-methoxypiperidine-1-carbonyl)benzamide], the IC50 was determined as 0.682 µM.

Take `COc1cc(CC(=O)N2CCOCC2)ccc1C(=O)NC[C@@H](O)CNC1Cc2ccccc2C1` [Compound 87, (S)-N-(3-((2,3-dihydro-1H-inden-2-yl)amino)-2-hydroxypropyl)-2-methoxy-4-(2-morpholino-2-oxoethyl)benzamide]: the IC50 was found to be 2.76 µM.

Turning to `O=C(NC[C@@H](O)CNC1Cc2ccccc2C1)c1ccc(C(=O)N2CCC3(CCO3)CC2)cc1` [Compound 88, (S)-N-(3-((2,3-dihydro-1H-inden-2-yl)amino)-2-hydroxypropyl)-4-(1-oxa-7-azaspiro[3.5]nonane-7-carbonyl)benzamide], the IC50 was 0.229 µM.

The compound `COC(=O)Cc1ccc(C(=O)NC[C@@H](O)CNC2Cc3ccccc3C2)cc1` [Compound 89, (S)-methyl 2-(4-((3-((2,3-dihydro-1H-inden-2-yl)amino)-2-hydroxypropyl)carbamoyl)phenyl)acetate] gave an IC50 of 0.853 µM.

For the compound `O=C(NC[C@@H](O)CNC1Cc2ccccc2C1)c1ccc(CC(=O)N2CCOCC2)cc1` [Compound 90, (S)-N-(3-((2,3-dihydro-1H-inden-2-yl)amino)-2-hydroxypropyl)-4-(2-morpholino-2-oxoethyl)benzamide], the IC50 stood at 3.15 µM.

`O=C(NC[C@H](O)CNC1Cc2ccccc2C1)c1ccc(CC(=O)N2CCCC2)cc1` [Compound 91, (R)-N-(3-((2,3-dihydro-1H-inden-2-yl)amino)-2-hydroxypropyl)-4-(2-oxo-2-(pyrrolidin-1-yl)ethyl)benzamide]: half-maximal inhibition (IC50) was put at 1.23 µM.

Take `O=C(NC[C@@H](O)CNC1Cc2ccccc2C1)c1ccc(CC(=O)N2CCCC2)cc1` [Compound 100, (S)-N-(3-((2,3-dihydro-1H-inden-2-yl)amino)-2-hydroxypropyl)-4-(2-oxo-2-(pyrrolidin-1-yl)ethyl)benzamide]: the midpoint of inhibition, the IC50, lay at 1.1 µM.

On to `CC1(C)COCCN1C(=O)c1ccc(C(=O)NC[C@@H](O)CNC2Cc3ccccc3C2)cc1` [Compound 102, (S)-N-(3-((2,3-dihydro-1H-inden-2-yl)amino)-2-hydroxypropyl)-4-(3,3-dimethylmorpholine-4-carbonyl)benzamide], for which the IC50 was 0.482 µM.

For `O=C(NC[C@@H](O)CNC1Cc2ccccc2C1)c1ccc(C(=O)N2CCOCC23CCC3)cc1` [Compound 104, (S)-N-(3-((2,3-dihydro-1H-inden-2-yl)amino)-2-hydroxypropyl)-4-(8-oxa-5-azaspiro[3.5]nonane-5-carbonyl)benzamide], the IC50 was determined as 0.514 µM.

`NC(CNC(=O)c1ccc(C(=O)N2C3CCC2COC3)cc1)CNC1Cc2ccccc2C1` (centres unmarked) [Compound 106, N-(2-Amino-3-((2,3-dihydro-1H-inden-2-yl)amino)propyl)-4-(3-oxa-8-azabicyclo[3.2.1]octane-8-carbonyl)benzamide] had an IC50 of 24.3 µM.

Consider `NC(=O)C(CNC(=O)c1ccc(C(=O)N2CCOCC2)cc1)CNC1Cc2ccccc2C1` (centres unmarked) [Compound 107, N-(3-Amino-2-(((2,3-dihydro-1H-inden-2-yl)amino)methyl)-3-oxopropyl)-4-(morpholine-4-carbonyl)benzamide], for which the IC50 came to 52.2 µM.

In the case of `O=C(NCC(CO)CNC1Cc2ccccc2C1)c1ccc(C(=O)N2CCOCC2)cc1` (centres unmarked) [Compound 108, N-(3-((2,3-Dihydro-1H-inden-2-yl)amino)-2-(hydroxymethyl)propyl)-4-(morpholine-4-carbonyl)benzamide], the IC50 stood at 21.2 µM.

The compound `CS(=O)(=O)N1CC(Nc2cc(C(=O)NC[C@@H](O)CNC3Cc4ccccc4C3)ccn2)C1` [Compound 109, (S)—N-(3-((2,3-Dihydro-1H-inden-2-yl)amino)-2-hydroxypropyl)-2-((1-(methylsulfonyl)azetidin-3-yl)amino)isonicotinamide bis 2,2,2-trifluoroacetic acid salt] showed an IC50 of 11.1 µM.

As to `CC(=O)N1CC(Nc2cc(C(=O)NC[C@@H](O)CNC3Cc4ccccc4C3)ccn2)C1` [Compound 110, (S)-2-((1-Acetylazetidin-3-yl)amino)-N-(3-((2,3-dihydro-1H-inden-2-yl)amino)-2-hydroxypropyl)isonicotinamide bis 2,2,2-trifluoroacetic acid salt], the IC50 was found to be 0.166 µM.

As for `CN(C[C@H](O)CNC(=O)c1ccc(C(=O)N2CCOCC2)cc1)C1Cc2ccccc2C1` [Compound 112, (R)—N-(3-((2,3-Dihydro-1H-inden-2-yl)(methyl)amino)-2-hydroxypropyl)-4-(morpholine-4-carbonyl)benzamide], the midpoint of inhibition, the IC50, lay at 9.41 µM.

`O=C(NC[C@@H](O)CNC1Cc2ccccc2C1)c1cccc2ncsc12` [Compound 113, (S)-N-(3-((2,3-dihydro-1H-inden-2-yl)amino)-2-hydroxypropyl) benzo[d]thiazole-7-carboxamide]: the IC50 turned out to be 4.15 µM.

For `CCOc1nc(C(=O)N2C3CCC2COC3)ccc1C(=O)NC[C@@H](O)CNC1Cc2ccccc2C1` [Compound 115, 6-(3-oxa-8-azabicyclo[3.2.1]octane-8-carbonyl)-N-((S)-3-((2,3-dihydro-1H-inden-2-yl)amino)-2-hydroxypropyl)-2-ethoxynicotinamide], the IC50 stood at 0.305 µM.

Compound `CCOc1cc(-c2nnc(C)o2)ccc1C(=O)NC[C@@H](O)CNC1Cc2ccccc2C1` [Compound 116, (S)-N-(3-((2,3-dihydro-1H-inden-2-yl)amino)-2-hydroxypropyl)-2-ethoxy-4-(5-methyl-1,3,4-oxadiazol-2-yl)benzamide] returned an IC50 of 0.276 µM.

Consider `O=C(NC[C@@H](O)CNC1Cc2ccccc2C1)c1ccccc1C(F)(F)F` [Compound 118, (S)-N-(3-((2,3-dihydro-1H-inden-2-yl)amino)-2-hydroxypropyl)-2-(trifluoromethyl)benzamide], for which the midpoint of inhibition, the IC50, lay at 103 µM.

Turning to `O=C(NC[C@@H](O)CNC1Cc2ccccc2C1)c1cccc(OC(F)F)c1` [Compound 119, (S)-3-(difluoromethoxy)-N-(3-((2,3-dihydro-1H-inden-2-yl)amino)-2-hydroxypropyl)benzamide], the IC50 came to 5.08 µM.

Regarding `O=C(NC[C@@H](O)CNC1Cc2ccccc2C1)c1cccc2[nH]cnc12` [Compound 120, (S)-N-(3-((2,3-dihydro-1H-inden-2-yl)amino)-2-hydroxypropyl)-1H-benzo[d]imidazole-4-carboxamide], the 50% inhibitory concentration (IC50) came to 13.3 µM.

Turning to `CCOc1cc(C(=O)N2CCOCC2)c(C)cc1C(=O)NC[C@@H](O)CNC1Cc2ccccc2C1` [Compound 122, (S)-N-(3-((2,3-dihydro-1H-inden-2-yl)amino)-2-hydroxypropyl)-2-ethoxy-5-methyl-4-(morpholine-4-carbonyl)benzamide], 0.166 µM corresponded to half-maximal inhibition (IC50).

For `O=C(NC[C@@H](O)CNC1Cc2ccccc2C1)c1cccc2scnc12` [Compound 125, (S)-N-(3-((2,3-dihydro-1H-inden-2-yl)amino)-2-hydroxypropyl)benzo[d]thiazole-4-carboxamide], half-maximal inhibition (IC50) required 6.72 µM.

Compound `CCOc1cc(C(=O)N2C3CCC2COC3)ncc1C(=O)NC[C@@H](O)CNC1Cc2ccccc2C1` [Compound 126, 6-(3-oxa-8-azabicyclo[3.2.1]octane-8-carbonyl)-N-((S)-3-((2,3-dihydro-1H-inden-2-yl(amino-2-hydroxypropyl)-4-ethoxynicotinamidedihydrochloride] displayed an IC50 of 0.226 µM.

Compound `O=C(NC[C@@H](O)CNC1Cc2ccccc2C1)c1cccc2[nH]ncc12` [Compound 128, (S)-N-(3-((2,3-dihydro-1H-inden-2-yl)amino)-2-hydroxypropyl)-1H-indazole-4-carboxamide] came in with an IC50 of 15.4 µM.

For `CCOc1cc(CC(=O)N2C3CCC2COC3)ccc1C(=O)NC[C@@H](O)CNC1Cc2ccccc2C1` [Compound 129, 4-(2-(3-oxa-8-azabicyclo[3.2.1]octan-8-yl)-2-oxoethyl)-N-((S)-3-((2,3-dihydro-1H-inden-2-yl)amino)-2-hydroxypropyl)-2-ethoxybenzamide], half-maximal inhibition (IC50) was put at 0.629 µM.

Turning to `CCOc1c(C(=O)NC[C@@H](O)CNC2Cc3ccccc3C2)ccc(C(=O)N2CCOCC2)c1C` [Compound 130, (S)-N-(3-((2,3-dihydro-1H-inden-2-yl)amino)-2-hydroxypropyl)-2-ethoxy-3-methyl-4-(morpholine-4-carbonyl)benzamide], the IC50 was determined as 1.13 µM.

In turn, `O=C(NC[C@@H](O)CNC1Cc2ccccc2C1)c1ccccc1Cl` [Compound 131, (S)-2-chloro-N-(3-((2,3-dihydro-1H-inden-2-yl)amino)-2-hydroxypropyl)benzamide] gave an IC50 of 4.59 µM.
